ChEMBL document CHEMBL5620355, “Discovery of intracellular self-assembly protein degraders driven by tumor-specific activatable bioorthogonal reaction” (Eur J Med Chem, 2023)
Active and inactive are the calls of the source. The rule behind the calls is not given here.

Tests used:
HEK293 [1] = assay: Cytotoxicity against HEK293 cells incubated for 48 hrs by MTT assay; type: toxicity, cell-based; conditions: human, hek293, 48 h
U-87 MG [2] = assay: Antiproliferative activity against human U87 cells incubated for 48 hrs by MTT assay; type: functional, cell-based, U-87MG ATCC
A549 [3] = assay: Antiproliferative activity against human A549 cells incubated for 48 hrs in presence of 4-(4-(3-(4-chloro-3-(trifluoromethyl)phenyl)ureido)phenoxy)-N-(prop-2-yn-1-yl)picolinamide by MTT assay; type: functional, cell-based; conditions: A549, 48 h
[4] = target: Platelet-derived growth factor receptor beta (Homo sapiens) (UniProt P09619); assay: Induction of PDGFR-beta degradation in human U87 cells upto 10 uM incubated for 48 hrs by Western blot analysis; type: cell-based
Platelet-derived growth factor receptor beta (Homo sapiens), sequence (P09619 whole entry): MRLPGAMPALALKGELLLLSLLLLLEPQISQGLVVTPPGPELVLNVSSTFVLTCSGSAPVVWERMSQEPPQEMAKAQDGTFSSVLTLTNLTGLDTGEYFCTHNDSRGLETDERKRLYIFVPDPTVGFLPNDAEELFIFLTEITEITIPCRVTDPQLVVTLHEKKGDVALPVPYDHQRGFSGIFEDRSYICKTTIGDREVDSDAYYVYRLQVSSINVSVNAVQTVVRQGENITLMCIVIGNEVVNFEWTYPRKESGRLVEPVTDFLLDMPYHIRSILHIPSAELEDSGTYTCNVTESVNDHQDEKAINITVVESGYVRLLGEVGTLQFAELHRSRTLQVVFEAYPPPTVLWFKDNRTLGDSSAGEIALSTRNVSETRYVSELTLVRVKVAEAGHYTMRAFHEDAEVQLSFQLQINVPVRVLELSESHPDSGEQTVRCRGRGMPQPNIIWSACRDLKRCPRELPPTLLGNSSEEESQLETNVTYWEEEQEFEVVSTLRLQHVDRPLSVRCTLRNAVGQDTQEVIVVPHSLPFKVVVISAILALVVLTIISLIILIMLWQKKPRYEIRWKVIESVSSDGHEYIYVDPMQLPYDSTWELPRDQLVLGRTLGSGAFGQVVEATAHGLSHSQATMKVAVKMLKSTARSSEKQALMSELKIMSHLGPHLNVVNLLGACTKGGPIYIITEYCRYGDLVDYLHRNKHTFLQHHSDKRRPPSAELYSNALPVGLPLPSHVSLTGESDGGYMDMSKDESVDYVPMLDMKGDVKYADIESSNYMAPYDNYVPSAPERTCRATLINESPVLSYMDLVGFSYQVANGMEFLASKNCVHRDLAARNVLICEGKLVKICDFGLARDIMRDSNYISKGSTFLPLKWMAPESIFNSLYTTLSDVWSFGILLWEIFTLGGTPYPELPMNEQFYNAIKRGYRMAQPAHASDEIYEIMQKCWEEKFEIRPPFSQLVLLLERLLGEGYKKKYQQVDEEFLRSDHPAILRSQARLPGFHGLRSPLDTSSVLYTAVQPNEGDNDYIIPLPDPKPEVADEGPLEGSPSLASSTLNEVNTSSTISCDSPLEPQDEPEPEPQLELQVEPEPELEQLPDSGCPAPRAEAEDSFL

U-87 MG [5] = assay: Antiproliferative activity against human U87 cells incubated for 48 hrs in presence of 4-(4-(3-(4-chloro-3-(trifluoromethyl)phenyl)ureido)phenoxy)-N-(prop-2-yn-1-yl)picolinamide by MTT assay; type: functional, cell-based, U-87MG ATCC
[6] = target: Vascular endothelial growth factor receptor 2 (Homo sapiens) (UniProt P35968); assay: Induction of VEGFR2 degradation in human U87 cells at 2 uM incubated for 48 hrs in presence of 4-(4-(3-(4-chloro-3-(trifluoromethyl)phenyl)ureido)phenoxy)-N-(prop-2-yn-1-yl)picolinamide by Western blot analysis; type: cell-based
Vascular endothelial growth factor receptor 2 (Homo sapiens), sequence (P35968 whole entry): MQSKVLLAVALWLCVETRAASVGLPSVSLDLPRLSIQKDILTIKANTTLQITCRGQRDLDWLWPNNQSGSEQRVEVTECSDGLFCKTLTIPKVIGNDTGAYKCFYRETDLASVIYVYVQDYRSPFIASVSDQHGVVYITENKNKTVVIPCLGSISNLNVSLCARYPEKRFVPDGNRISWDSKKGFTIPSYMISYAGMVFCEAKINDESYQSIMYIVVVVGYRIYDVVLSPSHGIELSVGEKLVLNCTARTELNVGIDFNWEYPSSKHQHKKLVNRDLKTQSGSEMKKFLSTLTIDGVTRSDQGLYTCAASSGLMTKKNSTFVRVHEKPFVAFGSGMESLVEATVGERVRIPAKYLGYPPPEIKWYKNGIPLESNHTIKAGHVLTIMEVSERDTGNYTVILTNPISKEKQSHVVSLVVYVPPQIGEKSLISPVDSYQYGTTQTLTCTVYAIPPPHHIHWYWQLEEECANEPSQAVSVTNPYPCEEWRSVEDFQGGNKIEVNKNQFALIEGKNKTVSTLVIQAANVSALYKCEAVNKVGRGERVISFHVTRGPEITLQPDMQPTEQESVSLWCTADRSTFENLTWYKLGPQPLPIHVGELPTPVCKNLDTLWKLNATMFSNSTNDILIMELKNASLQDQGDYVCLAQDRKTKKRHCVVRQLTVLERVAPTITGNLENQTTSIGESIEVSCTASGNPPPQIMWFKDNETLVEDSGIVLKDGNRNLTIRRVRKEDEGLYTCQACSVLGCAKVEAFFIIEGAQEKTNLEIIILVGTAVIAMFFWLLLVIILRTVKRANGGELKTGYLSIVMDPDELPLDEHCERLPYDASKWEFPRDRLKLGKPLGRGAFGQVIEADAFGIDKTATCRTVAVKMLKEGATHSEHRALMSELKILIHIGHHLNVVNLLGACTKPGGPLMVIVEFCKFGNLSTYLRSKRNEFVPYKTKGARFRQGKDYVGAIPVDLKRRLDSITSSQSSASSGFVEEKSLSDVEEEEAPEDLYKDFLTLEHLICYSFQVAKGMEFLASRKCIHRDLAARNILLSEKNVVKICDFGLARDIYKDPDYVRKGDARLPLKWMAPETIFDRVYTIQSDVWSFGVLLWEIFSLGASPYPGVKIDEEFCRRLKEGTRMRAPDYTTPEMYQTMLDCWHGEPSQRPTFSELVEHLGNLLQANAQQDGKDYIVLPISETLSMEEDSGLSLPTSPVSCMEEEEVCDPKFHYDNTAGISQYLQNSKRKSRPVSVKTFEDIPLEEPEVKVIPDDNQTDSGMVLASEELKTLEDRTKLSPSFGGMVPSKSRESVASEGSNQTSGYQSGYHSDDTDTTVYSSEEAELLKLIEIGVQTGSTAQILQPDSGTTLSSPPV

A549 [7] = assay: Antiproliferative activity against human A549 cells incubated for 48 hrs by MTT assay; type: functional, cell-based; conditions: A549, 48 h
[8] = target: Vascular endothelial growth factor receptor 2 (Homo sapiens) (UniProt P35968); assay: Induction of VEGFR2 degradation in human U87 cells upto 10 uM incubated for 48 hrs by Western blot analysis; type: cell-based
U-87 MG [9] = assay: Induction of cell cycle arrest at S phase in human U87 cells incubated for 48 hrs in presence of 4-(4-(3-(4-chloro-3-(trifluoromethyl)phenyl)ureido)phenoxy)-N-(prop-2-yn-1-yl)picolinamide by PI staining based flow cytometry; type: functional; conditions: U-87MG ATCC, dose 0.1-1 µM
[10] = target: Serine/threonine-protein kinase B-raf (Homo sapiens) (UniProt P15056); assay: Induction of BRAF degradation in human U87 cells upto 10 uM incubated for 48 hrs by Western blot analysis; type: cell-based
Serine/threonine-protein kinase B-raf (Homo sapiens), sequence (P15056 whole entry): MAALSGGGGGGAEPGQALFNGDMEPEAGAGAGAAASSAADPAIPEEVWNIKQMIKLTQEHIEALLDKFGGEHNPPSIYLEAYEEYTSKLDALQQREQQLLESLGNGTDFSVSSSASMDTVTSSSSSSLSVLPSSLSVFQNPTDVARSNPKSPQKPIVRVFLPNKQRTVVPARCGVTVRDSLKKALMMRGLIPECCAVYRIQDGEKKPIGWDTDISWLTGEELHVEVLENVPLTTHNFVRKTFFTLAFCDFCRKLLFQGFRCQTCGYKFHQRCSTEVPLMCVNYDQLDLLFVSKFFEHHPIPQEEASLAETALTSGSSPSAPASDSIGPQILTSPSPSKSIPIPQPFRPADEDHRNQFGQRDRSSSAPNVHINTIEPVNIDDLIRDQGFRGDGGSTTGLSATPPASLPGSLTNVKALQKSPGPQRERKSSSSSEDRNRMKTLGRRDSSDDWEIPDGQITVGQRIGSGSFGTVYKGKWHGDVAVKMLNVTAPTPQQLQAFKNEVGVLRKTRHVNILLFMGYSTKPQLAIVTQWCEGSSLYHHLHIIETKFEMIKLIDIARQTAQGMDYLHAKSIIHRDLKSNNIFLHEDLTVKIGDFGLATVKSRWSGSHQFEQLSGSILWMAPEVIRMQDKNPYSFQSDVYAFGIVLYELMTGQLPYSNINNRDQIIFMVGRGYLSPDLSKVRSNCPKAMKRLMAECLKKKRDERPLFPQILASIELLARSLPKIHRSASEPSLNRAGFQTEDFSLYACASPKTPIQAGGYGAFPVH

[11] = target: T1, Ephrin type-B receptor 4 (Homo sapiens) (UniProt P54760); assay: Induction of EphB4 degradation in human U87 cells upto 10 uM incubated for 48 hrs by Western blot analysis; type: cell-based
T1 sequence (whole entry): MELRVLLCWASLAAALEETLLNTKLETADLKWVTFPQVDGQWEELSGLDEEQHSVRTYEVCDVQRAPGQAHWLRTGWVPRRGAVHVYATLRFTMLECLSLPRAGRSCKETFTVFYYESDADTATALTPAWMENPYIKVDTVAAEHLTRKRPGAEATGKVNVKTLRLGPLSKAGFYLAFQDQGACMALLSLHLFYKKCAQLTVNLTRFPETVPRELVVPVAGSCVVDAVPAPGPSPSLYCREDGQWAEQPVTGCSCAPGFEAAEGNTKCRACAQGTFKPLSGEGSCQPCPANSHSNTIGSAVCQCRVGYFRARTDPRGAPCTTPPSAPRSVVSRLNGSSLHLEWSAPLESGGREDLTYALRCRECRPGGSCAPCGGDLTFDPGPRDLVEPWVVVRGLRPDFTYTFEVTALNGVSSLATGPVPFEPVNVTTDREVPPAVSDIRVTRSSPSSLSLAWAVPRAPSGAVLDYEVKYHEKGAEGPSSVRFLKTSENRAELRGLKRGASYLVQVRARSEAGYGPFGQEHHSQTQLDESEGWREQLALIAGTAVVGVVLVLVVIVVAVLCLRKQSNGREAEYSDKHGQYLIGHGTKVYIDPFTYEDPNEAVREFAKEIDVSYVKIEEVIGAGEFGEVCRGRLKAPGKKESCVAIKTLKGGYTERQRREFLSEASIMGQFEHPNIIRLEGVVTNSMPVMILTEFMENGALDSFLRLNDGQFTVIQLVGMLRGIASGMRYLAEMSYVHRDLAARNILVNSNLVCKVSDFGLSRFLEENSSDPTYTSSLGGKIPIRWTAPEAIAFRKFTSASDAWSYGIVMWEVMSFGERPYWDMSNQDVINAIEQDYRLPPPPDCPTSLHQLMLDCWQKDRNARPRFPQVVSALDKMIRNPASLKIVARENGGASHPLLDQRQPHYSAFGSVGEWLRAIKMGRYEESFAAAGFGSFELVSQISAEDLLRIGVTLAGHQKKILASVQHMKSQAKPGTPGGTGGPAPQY

HEK293 [12] = assay: Cytotoxicity against HEK293 cells at high concentration incubated for 48 hrs in presence of 4-(4-(3-(4-chloro-3-(trifluoromethyl)phenyl)ureido)phenoxy)-N-(prop-2-yn-1-yl)picolinamide by MTT assay; type: toxicity, cell-based; conditions: human, hek293, 48 h
HEK293 [13] = assay: Cytotoxicity against HEK293 cells at low concentration incubated for 48 hrs in presence of 4-(4-(3-(4-chloro-3-(trifluoromethyl)phenyl)ureido)phenoxy)-N-(prop-2-yn-1-yl)picolinamide by MTT assay; type: toxicity, cell-based; conditions: human, hek293, 48 h
[14] = Stability of compound in DMEM medium by HPLC analysis; type: physicochemical
[15] = target: T1, Ephrin type-B receptor 4 (Homo sapiens); assay: Induction of EphB4 degradation in human U87 cells at 2 uM incubated for 48 hrs in presence of 4-(4-(3-(4-chloro-3-(trifluoromethyl)phenyl)ureido)phenoxy)-N-(prop-2-yn-1-yl)picolinamide by Western blot analysis; type: cell-based
HEK293 [16] = assay: Cytotoxicity against HEK293 cells at low concentration incubated for 48 hrs by MTT assay; type: toxicity, cell-based; conditions: human, hek293, 48 h
HEK293 [17] = assay: Cytotoxicity against HEK293 cells at high concentration incubated for 48 hrs by MTT assay; type: toxicity, cell-based; conditions: human, hek293, 48 h

| Structure (SMILES) | Activity (HEK293 [1]) | IC50 (U-87 MG [2]) | IC50 (A549 [3]) | Activity [4] | IC50 (U-87 MG [5]) | Activity [6] | IC50 (A549 [7]) | Activity [8] | Activity (U-87 MG [9]) | Activity [10] | Activity [11] | Activity (HEK293 [12]) | Activity (HEK293 [13]) | Stability [14] | Activity [15] | Activity (HEK293 [16]) | Activity (HEK293 [17]) |
| --- | --- | --- | --- | --- | --- | --- | --- | --- | --- | --- | --- | --- | --- | --- | --- | --- | --- |
| Cc1ncsc1-c1ccc(CNC(=O)[C@@H]2C[C@@H](O)CN2C(=O)[C@@H](NC(=O)CCCCN=[N+]=[N-])C(C)(C)C)cc1 | Non-Toxic | > 50 µM | 1.06 µM | inactive | 16 µM | Active | > 50 µM | inactive | Dose-Dependent Effect | inactive | inactive | Toxic | Non-Toxic | Stable | Active |  |  |
| CNC(=O)c1cc(Oc2ccc(NC(=O)Nc3ccc(Cl)c(C(F)(F)F)c3)cc2)ccn1 [SORAFENIB] |  | 1.28 µM |  |  |  |  | 8.26 µM |  |  |  |  |  |  |  |  | Non-Toxic | Toxic |
| Nc1cccc2c1C(=O)N(C1CCC(=O)NC1=O)C2=O (stereo not given) [POMALIDOMIDE] |  |  |  |  |  |  |  |  |  |  |  |  |  | Unstable |  |  |  |
